{"source": "patent US20260176266A1", "about": "“PIPERIDINOPYRIMIDINE DERIVATIVE, PREPARATION METHOD THEREFOR AND USE THEREOF IN MEDICINE” (TUOJIE BIOTECH (SHANGHAI) CO., LTD., priority 2022, published 2026)", "key": {"CDK2/CyclinE1": {"molecular_target": "CDK2/CyclinE1 (Homo sapiens, UniProt P24941)", "assay": "ADP-Glo kinase assay, CDK2", "assay_type": "biochemical", "settings": "1 nM CDK2/CyclinE1, 15 μM ATP (Km), Histone H1, 60 min; read-out: inhibitory activity (IC50, nM) CDK2", "protocol": "(§1) The ADP-Glo kinase assay was used for testing the activity of CDKs. The compounds were diluted in 384-well plates using Echo. The starting concentration was 10 μM and was 3-fold diluted to obtain 10 concentration points, each tested in duplicate, and the final concentration of DMSO in the assay system was 1%. CDK solutions (the final concentrations were 16.5 nM CDK1/CyclinB, 1 nM CDK2/CyclinE1, 16.3 nM CDK4/CyclinD1, 11.5 nM CDK5/p25, 15.7 nM CDK6/CyclinD3, 80 nM CDK7/Cyclin H/MAT1, 15.3 nM CDK9/Cyclin T1, and 150 nM CDK12/CyclinK) prepared in assay buffer were added at 2.5 μL, and the enzymes and compounds were pre-incubated at room temperature for 10 min. ATP (the concentration was Km) & substrate solutions (20 μM ATP & 0.1 mg/mL Histone H1 Protein for CDK1/CyclinB, 15 μM ATP & 0.1 mg/mL Histone H1 Protein for CDK2/CyclinE1, 200 μM ATP & 0.2 mg/mL DYRKtide peptide for CDK4/CyclinD1, 10 μM ATP & 0.1 mg/mL Histone H1 Protein for CDK5/p25, 200 μM ATP & 0.1 mg/mL Histone H1 Protein for CDK6/CyclinD3, 70 μM ATP & 0.2 mg/mL MBP for CDK7/Cyclin H/MAT1, 60 μM ATP & 0.2 mg/mL PDKtide for CDK9/Cyclin T1, and 20 μM ATP & 80 μM pS7-CTD peptide for CDK12/CyclinK) prepared in assay buffer were added at 2.5 μL. After thorough mixing, the plates were incubated at room temperature, with CDK1/4/9/12/13 incubated for 120 min and CDK2/5/6/7 incubated for 60 min. ADP-Glo reagents were added at 4 μL, and the plates were incubated at room temperature for 40 min. Kinase detection reagents were added at 8 μL, and the plates were incubated at room temperature for 40 min. Readings were taken using an Envision multimode microplate reader. Data were processed using GraphPad Prism 8, and IC50 was calculated.\n(§2) [formula] • X: the logarithm of the compound concentration; Y: % inhibition."}, "CDK7/Cyclin H/MAT1": {"molecular_target": "CDK7/Cyclin H/MAT1 (Homo sapiens, UniProt P50613)", "sequence (P50613 whole entry, species assumed)": "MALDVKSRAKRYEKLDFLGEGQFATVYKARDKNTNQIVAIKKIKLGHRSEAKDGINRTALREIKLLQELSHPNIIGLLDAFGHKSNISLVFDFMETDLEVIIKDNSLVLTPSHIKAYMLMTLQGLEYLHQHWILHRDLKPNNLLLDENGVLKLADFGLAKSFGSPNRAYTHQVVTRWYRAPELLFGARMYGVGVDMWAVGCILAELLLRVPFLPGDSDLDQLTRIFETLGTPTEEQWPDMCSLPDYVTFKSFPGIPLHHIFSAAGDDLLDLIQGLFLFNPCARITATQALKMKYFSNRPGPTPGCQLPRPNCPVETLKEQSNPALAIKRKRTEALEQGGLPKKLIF", "sequence (P51946 whole entry partner, species assumed)": "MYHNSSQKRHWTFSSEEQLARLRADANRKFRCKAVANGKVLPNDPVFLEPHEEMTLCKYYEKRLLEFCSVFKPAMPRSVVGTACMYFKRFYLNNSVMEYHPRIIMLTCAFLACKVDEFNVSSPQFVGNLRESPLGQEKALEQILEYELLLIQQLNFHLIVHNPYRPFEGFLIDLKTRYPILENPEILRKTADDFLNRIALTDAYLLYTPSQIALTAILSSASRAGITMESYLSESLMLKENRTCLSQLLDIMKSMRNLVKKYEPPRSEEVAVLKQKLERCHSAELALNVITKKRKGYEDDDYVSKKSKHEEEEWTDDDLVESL", "sequence (P51948 whole entry partner, species assumed)": "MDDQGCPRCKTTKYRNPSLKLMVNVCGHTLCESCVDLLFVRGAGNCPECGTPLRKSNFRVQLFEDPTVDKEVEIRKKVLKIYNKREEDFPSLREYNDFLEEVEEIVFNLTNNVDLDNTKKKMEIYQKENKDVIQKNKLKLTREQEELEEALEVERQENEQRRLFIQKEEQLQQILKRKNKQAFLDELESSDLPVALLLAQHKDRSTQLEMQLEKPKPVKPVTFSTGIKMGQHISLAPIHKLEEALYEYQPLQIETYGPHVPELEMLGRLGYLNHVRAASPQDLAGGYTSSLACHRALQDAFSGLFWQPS", "assay": "ADP-Glo kinase assay, CDK7", "assay_type": "biochemical", "settings": "80 nM CDK7/Cyclin H/MAT1, 70 μM ATP (Km), MBP, 60 min; read-out: inhibitory activity (IC50, nM) CDK7", "protocol": "as §1, §2"}, "[1]": {"assay": "Human liver microsome metabolism study", "assay_type": "in vitro ADME", "settings": "human liver microsomes", "protocol": "222.5 μL of human liver microsomes (protein concentration: 1 mg/mL) and 25 μL of NADPH ([…]) were added to an incubation plate and pre-heated for 10 min. 2.5 μL of control compound and test compound (100 μM) were added.\n[…] The reaction was stopped by adding 5 volumes of cold acetonitrile containing IS (100 nM alprazolam, 200 nM caffeine, and 100 nM tolbutamide). The reaction mixture was centrifuged, and 100 μL of the supernatant was collected and mixed with 100 μL of ultrapure H2O. Then the mixture was analyzed by LC-MS/MS.\nThe slope value k was determined by linear regression of the natural logarithm of a curve of the parent drug remaining percentage versus incubation time.\nThe in-vitro half-life (in-vitro T1/2) was determined by the slope value:\nUsing the following equation (the average of repeated measurements), the in-vitro T½ (min) was converted to the in-vitro intrinsic clearance rate (in-vitro CLint, in μL/min/mg protein): […]"}}, "data": [{"smiles": "C[C@@H]1Cc2cnc(NCc3ccn(C)n3)nc2CN1C(=O)[C@H]1CCN(C)C[C@@H]1c1ccccc1", "note": "[Janssen-01, reference compound]", "values": [{"measurement": "IC50", "setting": "CDK2/CyclinE1", "result": 933, "unit": "nM"}, {"measurement": "IC50", "setting": "CDK7/Cyclin H/MAT1", "result": 25.2, "unit": "nM"}, {"measurement": "half-life at 1 μM", "setting": "[1]; in-vitro half-life", "result": 73, "unit": "min"}, {"measurement": "microsomal CLint at 1 μM", "setting": "[1]; in-vitro intrinsic clearance", "result": 19, "unit": "µL/min/mg"}, {"measurement": "Remaining amount % at 0.5 min", "setting": "[1]; incubation 0.5 min", "result": 100.00, "unit": "%"}, {"measurement": "Remaining amount % at 5 min", "setting": "[1]; incubation 5 min", "result": 91.32, "unit": "%"}, {"measurement": "Remaining amount % at 15 min", "setting": "[1]; incubation 15 min", "result": 78.60, "unit": "%"}, {"measurement": "Remaining amount % at 30 min", "setting": "[1]; incubation 30 min", "result": 68.95, "unit": "%"}, {"measurement": "Remaining amount % at 60 min", "setting": "[1]; incubation 60 min", "result": 55.59, "unit": "%"}]}]}
